From patent publication US9000025B2, “Autotaxin inhibitors and uses thereof” (Amira Pharmaceuticals, Inc., priority 2010, dated 2015)

Each compound was assayed against T1, autotaxin (ATX) (Homo sapiens, UniProt Q13822) (assay: Native Autotaxin Choline Release Assay). Details: autotaxin in conditioned medium from human melanoma cell line; choline released from LPC; read-out: MDA-MB-435S Assay IC50.
T1 construct: conditioned medium from the human melanoma cell line, MDA-MB-4355, which endogenously expresses autotaxin; host or cells: MDA-MB-435S human melanoma cells; serum-free conditioned medium, concentrated 20-fold
Type: biochemical
Method: ATX activity is determined by measuring the amount of choline realeased from the substrate, lyosphophatidylcholine (LPC). […] After reaching confluency, the cells are washed twice with phosphate-buffered saline (PBS) then cultured for 48 hours in phenol-red free, serum-free DMEM containing sodium pyruvate. […] 100 μl of a color mix which contains 4.5 mM 4-aminoantipyrine, 2.7 mM N-ethyl-N-(2-hydroxy-3-sulfopropyl)-m-toluidine, 21 units/ml horseradish peroxidase and 3 units/ml choline oxidase in 50 mM Tris, pH 8, 4.5 mM MgCl2 is added and the incubation continued at 37° C. for 10 minutes before reading the absorbance at 555 nm. The concentration of released choline in the sample is determined from a choline standard curve and is equal to the concentration of LPA produced.

| IC50 | Structure (SMILES) |
| --- | --- |
| < 300 nM | Cc1ccc(-n2c(C)c(Sc3cccc(C(=O)O)c3)c3ccc(Cl)cc32)cn1 [Compound 1-34, 3-[6-Chloro-2-methyl-1-(6-methyl-pyridin-3-yl)-1H-indol-3-ylsulfanyl]-benzoic acid] |
| < 300 nM | Cc1c(Sc2cccc(CC(=O)O)c2)c2ccc(Cl)cc2n1-c1cccnc1 [Compound 1-35, [3-(6-Chloro-2-methyl-1-pyridin-3-yl-1H-indol-3-ylsulfanyl)-phenyl]-acetic acid] |
| < 300 nM | CCOc1ccc(-n2c(C)c(Sc3cccc(C(=O)O)c3)c3ccc(Cl)cc32)cn1 [Compound 1-36, 3-[6-Chloro-1-(6-ethoxy-pyridin-3-yl)-2-methyl-1H-indol-3-ylsulfanyl]-benzoic acid] |
| < 300 nM | COc1cncc(-n2c(C)c(Sc3cccc(C(=O)O)c3)c3ccc(Cl)cc32)c1 [Compound 1-37, 3-[6-Chloro-1-(5-methoxy-pyridin-3-yl)-2-methyl-1H-indol-3-ylsulfanyl]-benzoic acid] |
| < 300 nM | Cc1c(Sc2cccc(C(=O)O)c2)c2ccc(Cl)cc2n1-c1cncnc1 [Compound 1-38, 3-(6-Chloro-2-methyl-1-pyrimidin-5-yl-1H-indol-3-ylsulfanyl)-benzoic acid] |
| < 300 nM | Cc1c(Sc2cccc(C(=O)O)c2)c2ccc(Cl)cc2n1-c1cnn(C)c1 [Compound 1-39, 3-[6-Chloro-2-methyl-1-(1-methyl-1H-pyrazol-4-yl)-1H-indol-3-ylsulfanyl]-benzoic acid] |
| > 1000 nM | COc1ccc(C(=O)O)cc1Sc1c(C)n(-c2cccnc2)c2cc(Cl)ccc12 [Compound 1-40, 3-(6-Chloro-2-methyl-1-pyridin-3-yl-1H-indol-3-ylsulfanyl)-4-methoxy-benzoic acid] |
| > 1000 nM | COc1ccc(C(=O)O)cc1Sc1c(C)n(-c2cnn(C)c2)c2cc(Cl)ccc12 [Compound 1-41, 3-[6-Chloro-2-methyl-1-(1-methyl-1H-pyrazol-4-yl)-1H-indol-3-ylsulfanyl]-4-methoxy-benzoic acid] |
| < 300 nM | Cc1c(Sc2cccc(C(=O)O)c2)c2ccc(Cl)cc2n1-c1cnsc1 [Compound 1-42, 3-(6-Chloro-1-isothiazol-4-yl-2-methyl-1H-indol-3-ylsulfanyl)-benzoic acid] |
| < 300 nM | CCn1cc(-n2c(C)c(Sc3cccc(C(=O)O)c3)c3ccc(Cl)cc32)cn1 [Compound 1-43, 3-[6-Chloro-1-(1-ethyl-1H-pyrazol-4-yl)-2-methyl-1H-indol-3-ylsulfanyl]-benzoic acid] |
| < 300 nM | Cc1c(Sc2cccc(C(=O)O)c2)c2ccc(Cl)cc2n1-c1cnn(C(C)C)c1 [Compound 1-44, 3-[6-Chloro-1-(1-isopropyl-1H-pyrazol-4-yl)-2-methyl-1H-indol-3-ylsulfanyl]-benzoic acid] |
| < 300 nM | Cc1c(Sc2cccc(CC(=O)O)c2)c2ccc(Cl)cc2n1-c1cnn(C)c1 [Compound 1-45, {3-[6-Chloro-2-methyl-1-(1-methyl-1H-pyrazol-4-yl)-1H-indol-3-ylsulfanyl]-phenyl}-acetic acid] |
| > 1000 nM | Cc1c(Sc2cc(C(=O)O)cc(C(F)(F)F)c2)c2ccc(Cl)cc2n1-c1cccnc1 [Compound 1-46, 3-(6-Chloro-2-methyl-1-pyridin-3-yl-1H-indol-3-ylsulfanyl)-5-trifluoromethyl-benzoic acid] |
| > 1000 nM | COc1ccc(CC(=O)O)cc1Sc1c(C)n(-c2cnn(C)c2)c2cc(Cl)ccc12 [Compound 1-47, {3-[6-Chloro-2-methyl-1-(1-methyl-1H-pyrazol-4-yl)-1H-indol-3-ylsulfanyl]-4-methoxy-phenyl}-acetic acid] |
| < 300 nM | Cc1cncc(-n2c(C)c(Sc3cccc(CC(=O)O)c3)c3ccc(Cl)cc32)c1 [Compound 1-48, {3-[6-Chloro-2-methyl-1-(5-methyl-pyridin-3-yl)-1H-indol-3-ylsulfanyl]-phenyl}-acetic acid] |
| < 300 nM | CCC(C(=O)O)c1cccc(Sc2c(C)n(-c3cccnc3)c3cc(Cl)ccc23)c1 (stereo not shown) [Compound 1-49, 2-[3-(6-Chloro-2-methyl-1-pyridin-3-yl-1H-indol-3-ylsulfanyl)-phenyl]-butyric acid] |
| > 1000 nM | Cc1ccc(C(=O)O)cc1Sc1c(C)n(-c2cnn(C)c2)c2cc(Cl)ccc12 [Compound 1-50, 3-[6-Chloro-2-methyl-1-(1-methyl-1H-pyrazol-4-yl)-1H-indol-3-ylsulfanyl]-4-methyl-benzoic acid] |
| > 1000 nM | CCn1cc(-n2c(C)c(Sc3cc(Br)cc(C(=O)O)c3)c3ccc(Cl)cc32)cn1 [Compound 1-51, 3-Bromo-5-[6-chloro-1-(1-ethyl-1H-pyrazol-4-yl)-2-methyl-1H-indol-3-ylsulfanyl]-benzoic acid] |
| > 1000 nM | CCn1cc(-n2c(C)c(Sc3cc(C)cc(C(=O)O)c3)c3ccc(Cl)cc32)cn1 [Compound 1-52, 3-[6-Chloro-1-(1-ethyl-1H-pyrazol-4-yl)-2-methyl-1H-indol-3-ylsulfanyl]-5-methyl-benzoic acid] |
| > 1000 nM | Cc1c(Sc2cc(C(=O)O)cc(C(F)(F)F)c2)c2ccc(Cl)cc2n1-c1cnn(C)c1 [Compound 1-53, 3-[6-Chloro-2-methyl-1-(1-methyl-1H-pyrazol-4-yl)-1H-indol-3-ylsulfanyl]-5-trifluoromethyl-benzoic acid] |
| > 1000 nM | Cc1ccc(C(=O)O)cc1Sc1c(C)n(-c2cccnc2)c2cc(Cl)ccc12 [Compound 1-54, 3-(6-Chloro-2-methyl-1-pyridin-3-yl-1H-indol-3-ylsulfanyl)-4-methyl-benzoic acid] |
| < 300 nM | Cc1c(Sc2cccc(C(=O)O)c2)c2ccc(Cl)cc2n1-c1cnn(CC(F)(F)F)c1 [Compound 1-55, 3-{6-Chloro-2-methyl-1-[1-(2,2,2-trifluoro-ethyl)-1H-pyrazol-4-yl]-1H-indol-3-ylsulfanyl}-benzoic acid] |
| < 300 nM | Cc1cncc(-n2c(C)c(Sc3cccc(C(=O)O)c3)c3ccc(Cl)cc32)c1 [Compound 1-56, 3-[6-Chloro-2-methyl-1-(5-methyl-pyridin-3-yl)-1H-indol-3-ylsulfanyl]-benzoic acid] |
| < 300 nM | CCCn1cc(-n2c(C)c(Sc3cccc(C(=O)O)c3)c3ccc(Cl)cc32)cn1 [Compound 1-57, 3-[6-Chloro-2-methyl-1-(1-propyl-1H-pyrazol-4-yl)-1H-indol-3-ylsulfanyl]-benzoic acid] |
| < 300 nM | Cc1c(Sc2cccc(C(=O)O)c2)c2ccc(Cl)cc2n1-c1cnn(-c2ccccc2)c1 [Compound 1-58, 3-[6-Chloro-2-methyl-1-(1-phenyl-1H-pyrazol-4-yl)-1H-indol-3-ylsulfanyl]-benzoic acid] |
| < 300 nM | Cc1c(Sc2cccc(C(=O)O)c2)c2ccc(Cl)cc2n1-c1cnn(Cc2ccccc2)c1 [Compound 1-59, 3-[1-(1-Benzyl-1H-pyrazol-4-yl)-6-chloro-2-methyl-1H-indol-3-ylsulfanyl]-benzoic acid] |
| < 300 nM | Cc1nn(C)cc1-n1c(C)c(Sc2cccc(C(=O)O)c2)c2ccc(Cl)cc21 [Compound 1-60, 3-[6-Chloro-1-(1,3-dimethyl-1H-pyrazol-4-yl)-2-methyl-1H-indol-3-ylsulfanyl]-benzoic acid] |
| < 300 nM | COc1c(Sc2c(C)n(-c3cnn(C)c3)c3cc(Cl)ccc23)cccc1C(=O)O [Compound 1-61, 3-[6-Chloro-2-methyl-1-(1-methyl-1H-pyrazol-4-yl)-1H-indol-3-ylsulfanyl]-2-methoxy-benzoic acid] |
